The structures appear in SMILES notation. A value given as a limit tells only on which side of the number the result lay.

As a reminder, the melting point is the temperature of the solid-liquid transition. As for `CCC(CC)(CC(=O)c1ccc(OC)c(OC)c1)C(=O)O`, the melting point lay in the range of 106 to 109 °C.

In turn, `C=CC(C)(C)CC(=O)C(=O)Nc1ccc2c(c1)C(=O)OC2` displayed a melting point of 103 to 104 °C.

Compound `CN1CCN(c2cccc3c2C[C@H](NC(=O)CCCc2ccccc2)CC3)CC1` displayed a melting point of 137 to 139 °C.

Compound `OCc1ccc(-c2ccc(F)cn2)cc1` displayed a melting point of 100 to 101 °C.

On to `O=C1C2=C(CCCC2)C(=O)N1c1ccc(O)cc1F`, for which the melting point lay within 132 to 136 °C.

In the case of `CC1CC(=O)Nc2nc(Br)c3ncccc3c21` (stereo unspecified), the melting point is 251 to 252 °C.

Consider `CN(C)CC#Cc1cc(CC2CCOCC2)cc2c(=O)c(C(=O)NCc3ccc(Cl)cc3)cn(C)c12`, for which the melting point lay in the range of 157 to 159 °C.

In turn, `O=C(Nc1cccc(-c2ccnc3c(C(=O)c4cccs4)cnn23)c1)c1cccc(Br)c1` showed a melting point above 300 °C.

As for `CCCCNC(=O)NC(=O)C(C)Oc1ccc(Oc2ncc(C(F)(F)F)cc2Cl)cc1` (stereo unspecified), the melting point lay in the range of 126 to 127 °C.

As for `CCOC(=O)c1ccc2c(c1)CCC(=Cc1cccnc1)C2=O`, the melting point is 112 to 114 °C.

With `CC(C)(C)OC(=O)Cn1c(=O)n(S(=O)(=O)c2ccc(Cl)cc2)c(=O)c2ccc(Cl)cc21`, the melting point was 188 to 190 °C.

As for `CC(Cl)OC(=O)c1ncc[nH]1` (stereo unspecified), the melting point came out at 50 °C.

On to `Cc1cc(OCC2(O)CCS(=O)(=O)CC2)cc(C)c1-c1cccc(CNc2ccc(CCC(=O)O)c(F)c2)c1`, for which the melting point is 178 °C.

For the compound `O=c1c(Br)cc(Cl)cn1Cc1ccccc1`, the melting point was 108 to 110 °C.

`CCOC(=O)Cc1ccc(Oc2ccc([N+](=O)[O-])cc2)cc1` returned a melting point of 70.5 to 73 °C.

`CCOC(=O)c1cnc2ccc(-c3ccc(Cl)cc3)cn12` showed a melting point of 130 °C.

In the case of `CCCCC(=O)OC1C=CC(OC(=O)CCCC)O1` (stereo unspecified), the melting point was 30 to 35 °C.

`Nc1ccc2c(c1)C(=O)C1(CC1)S2`: the melting point was 148 to 150 °C.

As for `CC(C)CCc1c(-c2ccc(S(N)(=O)=O)cc2)cnn(-c2ccc(F)cc2)c1=O`, the melting point was 180 to 183 °C.

For `COC(=O)C1Cc2c([nH]c3ccccc23)C(c2ccccc2Br)N1C(=O)CCl` (stereo unspecified), the melting point is 113 to 115 °C.

`C=CC(=O)N(c1cc(-n2ncc(=O)n(C)c2=O)c(F)cc1C#N)S(=O)(=O)CC` registered a melting point of 118 °C.

As to `COC(=O)C1=C(C)NCC(C)(C(=O)OC)C1c1ccccc1C=C[Si](C)(C)C` (stereo unspecified), the melting point lay in the range of 148 to 150 °C.

`O=C1C(=O)N(C(c2ccccc2)c2ccccc2)c2cccc(F)c21` came in with a melting point of 168 to 171 °C.

Compound `CCOC(=O)c1cc(Cc2ccccc2)c(O)c2ccccc12` had a melting point of 79 to 80 °C.

`COc1ccc2cc([C@H](C)C(=O)NOCC(=O)NCCO[N+](=O)[O-])ccc2c1`: the melting point lay within 40 to 44 °C.

On to `Cc1ccc([N+](=O)[O-])cc1CNC(=O)c1ccccc1`, for which the melting point lay within 134 to 137 °C.

In the case of `COc1cc(C(=O)c2ccc(C(F)(F)F)cc2)cc([N+](=O)[O-])c1O`, the melting point was 172 °C.

As for `Cc1nc(C)c(Cl)c(NCc2ccc(OCCn3c([N+](=O)[O-])cnc3C)cn2)n1`, the melting point is 182 to 184 °C.

`CCCCCCCCCCS(=O)(=O)NC(=O)c1cnc(C(N)=O)c(OC)c1` showed a melting point of 145 °C.

`O=C1N(Cc2ccc(C(F)(F)F)o2)c2cccc(-c3ccoc3)c2C12COc1cc3c(cc12)CCO3` (stereo unspecified): the melting point was 167 to 169 °C.

Turning to `C=Cc1cc(C)cc(C)c1CC(=O)N(O)C1(C(=O)OC)CCN(OC)CC1`, the melting point was 177 to 179 °C.

`CCCOc1c(OCc2ccccc2)cc(C2CCC(=O)O2)cc1S(=O)(=O)CCC` (stereo unspecified): the melting point was 95 to 96 °C.

For `Cc1ccc2c(c1)oc1c(C(N)=O)nn(-c3ccc(Cl)cc3Cl)c12`, the melting point lay in the range of 185 to 186 °C.

Take `O=C(Oc1cc(Cl)ccc1Cl)c1cc2ccccc2oc1=O`: the melting point was 189 to 192 °C.

Take `Nc1ncnc2c1ncn2OCCOCP(=O)(O)O`: the melting point fell in the range of 241 to 244 °C.

Consider `Cc1cc(C)cc(-c2[nH]c3ccc(C(=O)O)cc3c2CCN(CCCCc2ccc(NS(C)(=O)=O)cc2)C(=O)OCc2ccccc2)c1`, for which the melting point lay in the range of 212 to 213 °C.

For the compound `c1ccc(-n2c(Cn3ccnc3)nc3ccccc32)cc1`, the melting point was 116 to 117 °C.

Compound `COc1ccc(CCNCC(O)c2ccc(C)s2)cc1OC` (stereo unspecified) displayed a melting point of 108 to 110 °C.

Take `Cc1ccc2cccc(OCc3cccc(N)c3C)c2n1`: the melting point fell in the range of 223 to 227 °C.

`CC1(C)COc2ccc(C(=O)O)cc2OC1` showed a melting point of 172 to 173 °C.

On to `CS(=O)c1ccc(-c2nn(Cc3ccc(F)cc3)c(=O)cc2-c2ccc(F)cc2)cc1` (stereo unspecified), for which the melting point is 198 °C.

Regarding `Cc1c(C(=O)Nc2ccc(N3CCN(C4CCOCC4)CC3)c(C#N)c2)cnn1-c1ccc(Br)cc1`, the melting point turned out to be 288 °C.

In the case of `COc1ccc(-n2nc(C)cc2-c2ccccc2)cc1`, the melting point came to 110 °C.

For the compound `CCCCCCC(O)CCCCCCCCCCC(=O)NCCCC` (stereo unspecified), the melting point is 100 to 102 °C.

Regarding `c1cc(-c2ccc3[nH]cc4c3c2C[C@@H](N(CC2CC2)CC2CC2)C4)on1`, the melting point lay in the range of 146 to 147 °C.

With `CCCCOc1cc(C=C(C)C(=O)O)ccc1-c1cccc(CNCC(=O)c2ccccc2)c1`, the melting point is 166 °C.

As to `CCC(C(N)=O)c1c(C(O)(C(F)(F)F)C(F)(F)F)ccc2ccccc12` (stereo unspecified), the melting point lay within 189 to 190 °C.

Compound `COc1ccc2c(c1)oc(=O)c1c3ccc(OC)cc3sc21` gave a melting point of 220 to 221 °C.

With `Cc1cc2c3c(ccc2cc1C#N)OC(=O)C3(C)C`, the melting point was 215 to 217 °C.

The compound `CCCCCCC(O)CCCCCCCCCCC(=O)NCC(O)CNCCO` (stereo unspecified) had a melting point of 97.7 to 99.6 °C.

Turning to `CC(C)c1ccc2nc3ccc(C(=O)NCCCCn4ccnc4)cn3c(=O)c2c1`, the melting point was in the range of 165 to 167 °C.

The compound `O=C(NCCCCCCOC(=O)N1CCC2(CCCC2)CC1)OC1CCN(C(=O)Oc2ccc([N+](=O)[O-])cc2)CC1` showed a melting point of 113 to 114 °C.

For the compound `COc1ccc(C(c2ccc(N(C)C)cc2)c2ccc(N(C)C)cc2C(=O)O)cc1` (stereo unspecified), the melting point is 185 to 190 °C.

As to `CCCCC1OC(=O)c2cc(NC(C)=O)c([N+](=O)[O-])cc21` (stereo unspecified), the melting point fell in the range of 167 to 169 °C.

In the case of `COc1ccc(-c2c3c(cc4ccc(OC)c(OC)c24)C(=O)NC3=O)cc1`, the melting point lay within 288 to 290 °C.

As for `O=C(CC1CCC1)N[C@H]1CC[C@H](CCN2CCC(c3cccc4c3CCO4)CC2)CC1`, the melting point amounted to 196 °C.

`Cc1nc(C)c(-c2ccnc(Nc3cccc(S(=O)(=O)NCCO)c3)n2)s1` came in with a melting point of 184 to 186 °C.

`Cc1ccc(S(=O)(=O)Nc2nc(-c3ccc(OCc4ccccc4)c(OCc4ccccc4)c3)cs2)cc1`: the melting point lay within 158 to 161 °C.

In turn, `CC(C)(C)CC(C)(C)NC(=O)CCON(Cc1ccccc1)Cc1ccccc1` returned a melting point of 96 to 98 °C.

On to `COc1ccc(C(=O)Sc2ccc(C(=O)O)cc2)cc1C1(C)CCCCC1`, for which the melting point was in the range of 216 to 218 °C.

`CCCCCCOc1cc(O)c(-c2nc(-c3ccc(C)cc3C)nc(-c3ccc(C)cc3C)n2)cc1C(C)(C)c1ccccc1` gave a melting point of 111 to 115 °C.

In turn, `N[C@@H](Cc1ccccc1)C(=O)NCC(=O)Nc1ccc([N+](=O)[O-])cc1C(=O)c1ccccc1` displayed a melting point of 144 to 146 °C.

`COc1cc2c(c3c1OC(C)(C)C3)C(c1cccc(NC(=O)C3CCC(=O)N3)c1)=NC(C)(C)C2` (stereo unspecified) had a melting point of 145 to 147 °C.

As to `COc1cc(Cl)c2c(=O)c(Br)coc2c1`, the melting point was in the range of 176 to 177 °C.

In turn, `COc1cc(C=CC(=O)c2ccc(OC)c(OC)c2OC)cc(OC)c1` showed a melting point of 112 °C.

`CC(C)Oc1ccc(C(=O)[NH+]([O-])c2c(Cl)cncc2Cl)c2c1oc1ccccc12` (stereo unspecified): the melting point was in the range of 247 to 248 °C.

`CC(=O)C(Cc1ccccc1)(N=Nc1ccc(C(O)(C(F)(F)F)C(F)(F)F)cc1)C(N)=O` (stereo unspecified) gave a melting point of 128 to 133 °C.

In turn, `O=C(NCC12CC3CC(CC(C3)C1)C2)c1cc(-c2c(F)cccc2C(=O)O)ccc1Cl` came in with a melting point of 108 to 113 °C.

Consider `CNCCc1cc2c(cc1CC(=O)c1ccc(OC)c(OC)c1C(=O)O)OCO2`, for which the melting point was 176 to 179 °C.

The compound `COc1ccc2c(c1)C(c1ccc(Cl)cc1)=C1CCC(=S)NC12` (stereo unspecified) yielded a melting point of 202 to 203 °C.

`Nc1cccc(C2CN3CCSC3=N2)c1` (stereo unspecified) gave a melting point of 177 to 179 °C.

For `CC(=O)Nc1ccc(S(=O)(=O)Nc2cc(C)c(S(=O)(=O)C[N+](=O)[O-])c(C)c2)cc1`, the melting point was 209 to 210 °C.

On to `COc1nccnc1NS(=O)(=O)c1scc(Cl)c1Cl`, for which the melting point is 152 °C.

Regarding `COCCCn1c(=O)[nH]c2ncc(-c3ccc(O)cc3)nc21`, the melting point was 208 to 210 °C.

Regarding `O=C(NCCCc1ccc(CCl)cc1)c1ccc(-c2ccccn2)cc1`, the melting point is 115 to 117 °C.

Compound `O=C(c1cccnc1)N1CC2CCC(C1)O2` yielded a melting point of 48 to 49.5 °C.

For the compound `CCCCCCCCCCCCCCCCCCOc1ccc(C(=O)C(=O)N(CC(=O)O)CC(=O)O)cc1`, the melting point lay in the range of 130 to 132 °C.

Take `COc1ccc(/C(=C/C=C/C(=O)O)C(C)C)cc1`: the melting point was in the range of 132 to 133 °C.

Consider `CNc1cnc(N(Cc2ccccc2)C(=O)OCc2ccccc2)cc1-c1ccccc1C`, for which the melting point is 110 to 112 °C.

`O=C(O)CCC(O)c1ccc(-c2ccc(F)cc2F)cc1` (stereo unspecified) registered a melting point of 111 to 112 °C.

Compound `Cc1cc(C(=O)Nc2ccn3cc(-c4ccccc4)nc3n2)ccn1` showed a melting point of 255 to 257 °C.

Regarding `Cn1cnnc1C(O)(c1ccc(I)cc1)c1ccc2c(c1)c(-c1cccc(Cl)c1)nc1nnnn12` (stereo unspecified), the melting point amounted to 228 °C.

Take `OC(COc1ccn(-c2ccc(Cl)c(Cl)c2)n1)CN1CCOCC1` (stereo unspecified): the melting point is 158 to 161 °C.

In turn, `CC1CC(C)(C)C(=O)C(C(=O)c2ccc(OC(F)F)cc2[N+](=O)[O-])C1=O` (stereo unspecified) returned a melting point of 108 to 110 °C.

Regarding `CC(=NNC(=O)c1cccc([N+](=O)[O-])c1O)c1ccccc1`, the melting point lay within 163 to 168 °C.

In turn, `COc1ccc(C(=O)Nc2ccncc2)c2c1oc1ccccc12` had a melting point of 215 °C.

Source of the values: a melting point compilation (Tetko et al.; mined from patent text by program, amines drawn as free bases though some values may be those of a salt).
